How the values were obtained:
Format in all cases: functional, cell-based
[1] = molecular target: ATP-dependent translocase ABCB1 (Mus musculus, UniProt P21447); assay: TP_TRANSPORTER: transepithelial transport (basal to apical) in mdr1a-expressing LLC-PK1 cell; conditions: pig
[2] = molecular target: ATP-dependent translocase ABCB1 (Homo sapiens, UniProt P08183); assay: TP_TRANSPORTER: transepithelial transport (basal to apical) in MDR1-expressing LLC-PK1 cells; conditions: pig
[3] = molecular target: ATP-dependent translocase ABCB1 (Mus musculus, UniProt P06795); assay: TP_TRANSPORTER: transepithelial transport (basal to apical) in mdr1b-expressing LLC-PK1 cell
ATP-dependent translocase ABCB1 (Mus musculus, UniProt P06795), sequence (P06795 whole entry): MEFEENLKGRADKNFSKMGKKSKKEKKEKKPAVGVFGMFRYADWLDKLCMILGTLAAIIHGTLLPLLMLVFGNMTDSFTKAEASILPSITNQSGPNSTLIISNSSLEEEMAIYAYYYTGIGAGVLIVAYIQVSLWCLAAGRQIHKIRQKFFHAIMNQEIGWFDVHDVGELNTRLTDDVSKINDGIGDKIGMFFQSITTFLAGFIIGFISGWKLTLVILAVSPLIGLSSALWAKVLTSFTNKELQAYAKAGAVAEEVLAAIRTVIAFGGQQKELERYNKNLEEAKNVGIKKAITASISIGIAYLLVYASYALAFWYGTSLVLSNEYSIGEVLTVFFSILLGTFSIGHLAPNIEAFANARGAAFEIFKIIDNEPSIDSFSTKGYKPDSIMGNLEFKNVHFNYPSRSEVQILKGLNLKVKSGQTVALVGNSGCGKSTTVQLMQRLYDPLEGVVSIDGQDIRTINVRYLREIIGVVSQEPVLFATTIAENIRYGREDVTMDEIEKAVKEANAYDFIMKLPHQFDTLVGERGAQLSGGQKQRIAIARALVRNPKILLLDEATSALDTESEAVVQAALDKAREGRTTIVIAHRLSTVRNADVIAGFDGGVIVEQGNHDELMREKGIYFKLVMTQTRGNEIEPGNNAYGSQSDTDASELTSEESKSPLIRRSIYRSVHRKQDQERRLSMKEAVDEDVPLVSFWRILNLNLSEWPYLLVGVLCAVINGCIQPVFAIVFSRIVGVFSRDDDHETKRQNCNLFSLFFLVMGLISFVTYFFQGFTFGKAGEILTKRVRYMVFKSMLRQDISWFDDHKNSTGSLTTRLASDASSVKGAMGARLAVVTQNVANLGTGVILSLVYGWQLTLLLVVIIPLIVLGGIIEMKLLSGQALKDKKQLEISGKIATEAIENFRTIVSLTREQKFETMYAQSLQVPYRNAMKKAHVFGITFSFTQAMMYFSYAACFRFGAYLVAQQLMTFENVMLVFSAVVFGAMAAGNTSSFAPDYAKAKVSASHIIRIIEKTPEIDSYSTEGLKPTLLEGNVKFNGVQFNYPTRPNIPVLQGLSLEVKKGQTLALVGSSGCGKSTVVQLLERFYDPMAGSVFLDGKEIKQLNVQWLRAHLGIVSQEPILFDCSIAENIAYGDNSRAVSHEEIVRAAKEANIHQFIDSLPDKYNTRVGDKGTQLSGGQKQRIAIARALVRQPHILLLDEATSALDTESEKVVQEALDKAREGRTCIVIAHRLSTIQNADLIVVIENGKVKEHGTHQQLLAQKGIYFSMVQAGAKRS

ATP-dependent translocase ABCB1 (Mus musculus, UniProt P21447), sequence (P21447 whole entry): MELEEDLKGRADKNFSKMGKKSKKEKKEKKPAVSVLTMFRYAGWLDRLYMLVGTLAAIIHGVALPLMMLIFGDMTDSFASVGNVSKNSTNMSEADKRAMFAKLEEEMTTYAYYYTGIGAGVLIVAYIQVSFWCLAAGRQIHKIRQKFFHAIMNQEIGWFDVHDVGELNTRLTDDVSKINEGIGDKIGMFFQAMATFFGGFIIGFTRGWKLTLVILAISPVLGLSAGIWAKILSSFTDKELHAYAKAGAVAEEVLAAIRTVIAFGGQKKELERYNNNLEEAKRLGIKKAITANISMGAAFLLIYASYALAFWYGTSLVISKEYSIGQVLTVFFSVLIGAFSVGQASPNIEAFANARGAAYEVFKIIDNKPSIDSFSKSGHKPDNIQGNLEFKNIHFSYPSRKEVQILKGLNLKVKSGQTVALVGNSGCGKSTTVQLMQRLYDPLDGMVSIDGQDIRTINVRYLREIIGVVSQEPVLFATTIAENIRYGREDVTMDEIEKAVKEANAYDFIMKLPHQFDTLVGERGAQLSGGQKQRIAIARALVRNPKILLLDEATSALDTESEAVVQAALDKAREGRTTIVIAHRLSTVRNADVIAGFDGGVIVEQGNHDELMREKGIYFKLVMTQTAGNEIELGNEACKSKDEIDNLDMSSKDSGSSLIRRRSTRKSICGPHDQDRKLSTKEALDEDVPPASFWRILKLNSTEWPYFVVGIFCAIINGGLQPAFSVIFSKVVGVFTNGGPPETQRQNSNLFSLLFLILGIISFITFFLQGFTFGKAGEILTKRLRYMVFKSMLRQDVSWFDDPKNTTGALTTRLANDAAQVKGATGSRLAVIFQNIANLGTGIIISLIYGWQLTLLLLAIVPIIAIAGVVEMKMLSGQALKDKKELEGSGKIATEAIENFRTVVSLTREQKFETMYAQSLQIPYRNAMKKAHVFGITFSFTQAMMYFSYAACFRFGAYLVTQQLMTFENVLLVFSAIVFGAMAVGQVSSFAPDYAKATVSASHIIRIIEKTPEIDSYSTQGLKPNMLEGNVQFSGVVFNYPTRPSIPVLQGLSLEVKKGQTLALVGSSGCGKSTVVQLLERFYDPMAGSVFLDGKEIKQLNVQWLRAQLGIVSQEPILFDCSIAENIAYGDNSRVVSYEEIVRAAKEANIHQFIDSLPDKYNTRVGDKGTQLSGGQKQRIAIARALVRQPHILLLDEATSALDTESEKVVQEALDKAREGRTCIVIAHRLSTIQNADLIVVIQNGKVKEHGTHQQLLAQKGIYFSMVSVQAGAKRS
ATP-dependent translocase ABCB1 (Homo sapiens, UniProt P08183), sequence (P08183 whole entry): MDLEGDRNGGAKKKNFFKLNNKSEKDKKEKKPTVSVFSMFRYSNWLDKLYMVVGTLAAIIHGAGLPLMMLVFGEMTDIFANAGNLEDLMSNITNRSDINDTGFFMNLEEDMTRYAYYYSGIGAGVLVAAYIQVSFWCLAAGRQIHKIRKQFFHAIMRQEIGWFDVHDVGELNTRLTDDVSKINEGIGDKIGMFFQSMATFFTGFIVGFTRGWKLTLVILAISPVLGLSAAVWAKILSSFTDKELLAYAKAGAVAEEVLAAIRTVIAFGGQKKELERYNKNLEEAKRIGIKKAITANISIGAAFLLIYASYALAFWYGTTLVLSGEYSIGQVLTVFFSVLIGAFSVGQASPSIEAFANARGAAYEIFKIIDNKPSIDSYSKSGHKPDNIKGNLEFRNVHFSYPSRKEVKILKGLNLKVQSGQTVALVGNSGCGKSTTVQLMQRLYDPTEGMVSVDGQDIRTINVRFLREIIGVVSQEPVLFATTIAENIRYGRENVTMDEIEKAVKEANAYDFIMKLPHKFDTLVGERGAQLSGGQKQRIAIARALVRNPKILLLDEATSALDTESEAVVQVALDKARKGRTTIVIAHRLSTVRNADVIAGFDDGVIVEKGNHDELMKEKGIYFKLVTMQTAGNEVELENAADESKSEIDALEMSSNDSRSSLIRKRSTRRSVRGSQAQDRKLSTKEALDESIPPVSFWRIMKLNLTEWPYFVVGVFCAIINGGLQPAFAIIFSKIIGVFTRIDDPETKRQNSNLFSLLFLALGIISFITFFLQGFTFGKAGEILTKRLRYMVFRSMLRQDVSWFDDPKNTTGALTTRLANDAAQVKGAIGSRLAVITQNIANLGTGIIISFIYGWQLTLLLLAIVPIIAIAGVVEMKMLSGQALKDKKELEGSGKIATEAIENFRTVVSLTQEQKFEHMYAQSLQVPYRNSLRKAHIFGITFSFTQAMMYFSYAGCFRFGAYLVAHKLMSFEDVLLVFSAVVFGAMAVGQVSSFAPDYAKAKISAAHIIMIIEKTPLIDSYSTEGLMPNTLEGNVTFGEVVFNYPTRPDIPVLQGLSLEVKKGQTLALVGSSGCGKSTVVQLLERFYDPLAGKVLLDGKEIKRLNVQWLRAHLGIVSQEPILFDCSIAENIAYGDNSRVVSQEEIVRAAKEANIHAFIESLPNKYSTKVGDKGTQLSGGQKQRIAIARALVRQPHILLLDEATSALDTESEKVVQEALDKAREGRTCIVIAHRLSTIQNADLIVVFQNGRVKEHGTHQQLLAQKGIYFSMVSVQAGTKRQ

Activity [1]: substrate [+] | Activity [2]: substrate [+] | Activity [3]: substrate [+]
Structure (SMILES): CC(C)(C)NC(=O)[C@@H]1C[C@@H]2CCCC[C@@H]2CN1C[C@@H](O)[C@H](Cc1ccccc1)NC(=O)[C@H](CC(N)=O)NC(=O)c1ccc2ccccc2n1
